Values quoted from earlier work as cited in PMC4358366, “Identification of ‘erasers’ for lysine crotonylated histone marks using a chemical proteomics approach” (eLife, 2014).
“Also recorded” adds a separate entry of the source. Where no end group is shown, it is not given here. The star is where a group is joined. Crotonyl(E) = C/C=C/C(=O)*

Assays:
Conditions in all cases: H3K9Cr peptide, residues 5–13; [32P]-NAD TLC; ref Feldman et al., 2013; cited from earlier work
Sirt3 = system: Sirt3
Source text: Siruins were initially recognized as NAD-dependent deacetylases ([Imai et al., 2000]; [Landry et al., 2000]; [Sauve et al., 2006]). […] In this study ...

Sirt2 = system: Sirt2
Source text: (§1) Lysine crotonylation (Kcr) is a newly discovered histone PTM that is specifically enriched at active gene promoters and potential enhancers in mammalian cell genomes ([Tan et al., 2011]). […] However, further mechanistic and functional studies of histone Kcr have been limited by a lack of knowledge of the enzymes that catalyze the addition or removal of Kcr in cells. In a systematic screening of the activities of the ... || Siruins were initially recognized as NAD-dependent deacetylases ([Imai et al., 2000]; [Landry et al., 2000]; [Sauve et al., 2006]). […] In this study ...

Sirt1 = system: Sirt1
Source text: as §1

## histone H3K9Cr peptide: H3K9Cr peptide of Denu's study, residues 5–13 of histone H3 (QTARK(Crotonyl(E))STGG; UniProt P68431 6-14, looked up, fragment)
Sirt3
  decrotonylase activity of Sirt3 (literature): totally inactive
Sirt2
  decrotonylase activity of Sirt2 (literature): exhibited decrotonylase activity; also recorded: can catalyze the removal of a crotonyl group
Sirt1
  decrotonylase activity of Sirt1 (literature): exhibited decrotonylase activity; also recorded: can catalyze the removal of a crotonyl group
